13 compounds from ChEMBL document CHEMBL3603837, “Indole Glucocorticoid Receptor Antagonists Active in a Model of Dyslipidemia Act via a Unique Association with an Agonist Binding Site” (J Med Chem, 2015) can be followed below.

Calls of active or inactive are those of the source. No cut-off for these calls is given here.

The target of one assay is T1, Androgen receptor (Homo sapiens, UniProt P10275).
T1 sequence (P10275 whole entry): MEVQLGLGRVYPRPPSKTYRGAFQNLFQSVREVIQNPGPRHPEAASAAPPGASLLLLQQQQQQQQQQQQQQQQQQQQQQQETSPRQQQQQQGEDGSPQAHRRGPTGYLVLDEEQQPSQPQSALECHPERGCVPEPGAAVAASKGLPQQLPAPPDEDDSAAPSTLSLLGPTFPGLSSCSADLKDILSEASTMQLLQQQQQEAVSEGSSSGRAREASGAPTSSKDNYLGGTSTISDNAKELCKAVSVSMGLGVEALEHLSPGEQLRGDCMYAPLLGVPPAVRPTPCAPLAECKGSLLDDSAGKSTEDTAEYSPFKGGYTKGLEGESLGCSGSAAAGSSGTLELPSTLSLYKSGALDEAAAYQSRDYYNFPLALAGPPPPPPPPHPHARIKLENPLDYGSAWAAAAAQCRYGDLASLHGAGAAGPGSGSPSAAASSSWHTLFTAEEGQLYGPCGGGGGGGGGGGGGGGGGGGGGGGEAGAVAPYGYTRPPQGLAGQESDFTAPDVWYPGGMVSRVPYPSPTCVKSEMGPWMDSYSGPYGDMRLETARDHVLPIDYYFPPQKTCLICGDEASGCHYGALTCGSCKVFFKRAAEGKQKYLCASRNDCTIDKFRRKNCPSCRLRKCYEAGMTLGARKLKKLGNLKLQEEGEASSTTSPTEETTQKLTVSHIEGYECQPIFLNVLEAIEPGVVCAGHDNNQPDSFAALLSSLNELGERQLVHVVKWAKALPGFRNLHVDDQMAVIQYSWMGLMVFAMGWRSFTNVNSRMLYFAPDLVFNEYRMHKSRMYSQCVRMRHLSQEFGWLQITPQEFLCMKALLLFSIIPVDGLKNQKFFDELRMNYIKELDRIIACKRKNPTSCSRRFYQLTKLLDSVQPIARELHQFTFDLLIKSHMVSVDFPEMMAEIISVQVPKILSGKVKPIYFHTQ
The assay is described as follows: biochemical.

Assay [1] has as its target T2, Estrogen receptor (Homo sapiens) (UniProt P03372).
T2 sequence (whole entry): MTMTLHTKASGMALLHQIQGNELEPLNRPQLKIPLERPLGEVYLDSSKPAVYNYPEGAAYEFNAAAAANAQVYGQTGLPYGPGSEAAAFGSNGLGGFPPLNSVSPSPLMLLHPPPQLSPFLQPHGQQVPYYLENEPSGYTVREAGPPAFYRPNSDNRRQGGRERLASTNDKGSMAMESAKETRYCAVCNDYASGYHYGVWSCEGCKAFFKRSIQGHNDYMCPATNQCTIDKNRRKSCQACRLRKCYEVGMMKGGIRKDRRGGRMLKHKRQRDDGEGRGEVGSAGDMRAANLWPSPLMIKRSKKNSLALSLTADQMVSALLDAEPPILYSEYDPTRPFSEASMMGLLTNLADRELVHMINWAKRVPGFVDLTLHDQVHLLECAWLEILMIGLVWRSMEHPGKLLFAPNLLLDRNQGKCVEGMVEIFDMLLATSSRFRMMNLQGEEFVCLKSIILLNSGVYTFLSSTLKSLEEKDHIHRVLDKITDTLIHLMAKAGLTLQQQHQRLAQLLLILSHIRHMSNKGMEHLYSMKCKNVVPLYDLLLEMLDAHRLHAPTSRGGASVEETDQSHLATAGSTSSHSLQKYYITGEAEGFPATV
The assay is described as follows: Binding affinity to human estrogen receptor expressed in HEK293 cells by scintillation counting based radioligand competition binding assay. Type of assay: cell-based. Background: Displacement assays read how much labelled ligand stays bound in the presence of the test substance.

The next assay has as its target T3, Progesterone receptor (Homo sapiens, UniProt P06401).
T3 sequence (P06401 whole entry): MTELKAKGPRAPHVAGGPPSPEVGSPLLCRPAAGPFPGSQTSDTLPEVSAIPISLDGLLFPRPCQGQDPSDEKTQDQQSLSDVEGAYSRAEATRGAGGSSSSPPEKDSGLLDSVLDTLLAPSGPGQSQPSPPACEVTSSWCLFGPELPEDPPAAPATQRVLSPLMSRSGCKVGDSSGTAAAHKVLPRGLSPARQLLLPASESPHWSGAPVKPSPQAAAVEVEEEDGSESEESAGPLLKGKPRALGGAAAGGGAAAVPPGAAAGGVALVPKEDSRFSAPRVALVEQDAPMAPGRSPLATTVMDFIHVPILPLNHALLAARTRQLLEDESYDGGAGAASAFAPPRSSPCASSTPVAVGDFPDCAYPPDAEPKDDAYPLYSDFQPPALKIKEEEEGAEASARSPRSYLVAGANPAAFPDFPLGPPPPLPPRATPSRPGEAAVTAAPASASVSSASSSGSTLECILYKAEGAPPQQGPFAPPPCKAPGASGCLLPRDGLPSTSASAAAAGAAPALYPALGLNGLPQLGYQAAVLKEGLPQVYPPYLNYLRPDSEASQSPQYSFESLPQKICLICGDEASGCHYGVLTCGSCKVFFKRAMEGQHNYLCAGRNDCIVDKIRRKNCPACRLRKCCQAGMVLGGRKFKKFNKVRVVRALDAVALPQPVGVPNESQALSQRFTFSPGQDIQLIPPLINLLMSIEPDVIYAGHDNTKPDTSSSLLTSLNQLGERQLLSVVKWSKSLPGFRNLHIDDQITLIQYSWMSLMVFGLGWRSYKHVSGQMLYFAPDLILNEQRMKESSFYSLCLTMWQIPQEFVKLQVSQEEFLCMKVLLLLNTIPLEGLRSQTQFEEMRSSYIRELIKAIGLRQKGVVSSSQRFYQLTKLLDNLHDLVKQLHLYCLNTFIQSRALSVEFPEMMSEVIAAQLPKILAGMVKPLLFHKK
The assay is described as follows: Displacement of [3H]-methyltrienolone from human progesterone receptor expressed in HEK293 cells by scintillation counting based radioligand competition binding assay.

Description for Androgen receptor: Displacement of [3H]-methyltrienolone from human androgen receptor expressed in HEK293 cells by scintillation counting based radioligand competition binding assay

For the compound `CS(=O)(=O)Nc1cccc2c(-c3ccc(F)cc3)c[nH]c12`, the figures for the inhibition constant Ki at Androgen receptor and on Progesterone receptor were 496 nM and 29 nM, respectively. Besides, in assay [1], the result was inactive.
For the compound `COc1ccccc1-c1c[nH]c2c(NS(C)(=O)=O)cccc12`, the inhibition constant Ki (in general, a dissociation constant, usually derived from enzyme kinetics or from competition with a known ligand) worked out at 401 nM at Androgen receptor and 86 nM on Progesterone receptor. The outcome in assay [1] was inactive.
The corresponding values for `CS(=O)(=O)Nc1cccc2cc[nH]c12` are 355 nM, 104 nM and “inactive”.
For `COc1cc(NS(C)(=O)=O)c2[nH]c(C)c(-c3ccccc3)c2c1` the same measures were 4060 nM, 3940 nM and “inactive”.
For `COc1cc(F)ccc1-c1c(Cc2ccccc2)[nH]c2c(NS(C)(=O)=O)cc(C(C)C)cc12` the same measures were 684 nM, 4000 nM and “inactive”.
Take `COc1ccc(F)cc1-c1c(-c2ccccc2)[nH]c2c(NS(C)(=O)=O)cccc12`: the Ki was 905 nM at Androgen receptor and 44.2 nM on Progesterone receptor. The outcome in assay [1] was inactive.
The corresponding values for `COc1cc(F)ccc1-c1c(CN(C)Cc2ccccc2)[nH]c2c(NS(C)(=O)=O)cc(C(C)(C)C)cc12` are 231 nM, 253 nM and “inactive”.
Regarding `COc1cc(F)ccc1-c1c(C)[nH]c2c(NS(C)(=O)=O)cc(F)cc12`, the Ki on Androgen receptor was determined as 1130 nM; on Progesterone receptor it was 20.5 nM. The outcome in assay [1] was inactive.
In the case of `COc1cc(F)ccc1-c1c(CN(C)Cc2ccccc2)[nH]c2c(N)cc(F)cc12`, the values for the inhibition constant (Ki) on Androgen receptor and at Progesterone receptor were 4140 nM and 4190 nM, respectively. Besides, the outcome in assay [1] was inactive.
The corresponding values for `COc1cc(F)ccc1-c1c(CN(C)Cc2ccccc2)[nH]c2c(NS(C)(=O)=O)cc(C(C)C)cc12` are 232 nM, 64.2 nM and “inactive”.
For `COc1cc(NS(C)(=O)=O)c2[nH]c(C)c(-c3cc(F)ccc3OC)c2c1` the same measures were 1120 nM, 22.3 nM and “inactive”.
`COc1ccc(Cl)cc1-c1c[nH]c2c(NS(C)(=O)=O)cccc12`: the results for the Ki at Androgen receptor and at Progesterone receptor were 697 nM and 233 nM, respectively. The result in assay [1] was inactive.
`CS(=O)(=O)Nc1cccc2c(-c3cccc(Cl)c3)c[nH]c12`: the figures for the Ki at Androgen receptor and at Progesterone receptor were 91 nM and 5.51 nM, respectively. The result in assay [1] was inactive.
